In general, IC50 refers to the concentration that gives 50% inhibition. Low readings indicate greater potency in that assay, high ones weaker potency in that assay. The term Kd denotes the free concentration of one partner at which half of the binding sites on the other are occupied at equilibrium, for simple one-to-one binding. By EC50 is commonly meant the concentration giving half of the maximal effect.

These results are taken from ChEMBL document CHEMBL5226319, “Small molecule approaches to treat autoimmune and inflammatory diseases (Part III): Targeting cytokines and cytokine receptor complexes” (Bioorg Med Chem Lett, 2021).

In experiment [1] the target is T1, Interleukin-2 receptor subunit alpha (Homo sapiens, UniProt P01589).
T1 sequence (P01589 whole entry): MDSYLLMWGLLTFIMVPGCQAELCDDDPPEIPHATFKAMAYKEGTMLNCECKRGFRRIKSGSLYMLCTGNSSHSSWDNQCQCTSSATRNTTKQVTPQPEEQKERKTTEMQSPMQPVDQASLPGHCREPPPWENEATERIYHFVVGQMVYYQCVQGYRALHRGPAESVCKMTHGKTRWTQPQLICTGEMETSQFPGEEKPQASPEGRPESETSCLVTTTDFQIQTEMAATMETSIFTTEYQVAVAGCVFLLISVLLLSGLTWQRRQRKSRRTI
Kind of experiment: Inhibition of IL-2R alpha (unknown origin).

Experiment [2] deals with T2, Interleukin-1 receptor type 1 (Homo sapiens, UniProt P14778).
T2 sequence (P14778 whole entry): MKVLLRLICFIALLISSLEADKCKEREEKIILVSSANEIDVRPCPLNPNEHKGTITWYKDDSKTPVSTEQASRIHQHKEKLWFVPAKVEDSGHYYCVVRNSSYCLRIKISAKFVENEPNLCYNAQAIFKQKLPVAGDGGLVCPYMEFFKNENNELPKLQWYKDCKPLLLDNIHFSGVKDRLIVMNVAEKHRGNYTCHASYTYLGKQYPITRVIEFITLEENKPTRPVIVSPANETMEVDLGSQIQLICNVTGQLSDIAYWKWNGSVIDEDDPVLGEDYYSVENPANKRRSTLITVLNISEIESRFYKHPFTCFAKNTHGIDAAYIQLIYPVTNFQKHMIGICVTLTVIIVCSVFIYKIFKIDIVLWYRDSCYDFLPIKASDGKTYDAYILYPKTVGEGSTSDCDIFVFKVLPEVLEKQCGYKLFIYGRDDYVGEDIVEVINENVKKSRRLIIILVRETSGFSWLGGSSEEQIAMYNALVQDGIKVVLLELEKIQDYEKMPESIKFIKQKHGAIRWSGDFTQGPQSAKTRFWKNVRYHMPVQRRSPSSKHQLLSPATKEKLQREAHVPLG
Description: Inhibition of human IL1-R1 assessed as dissociation constant incubated for 5 mins by SPR analysis.

Experiment [3] is described as follows: Inhibition of human CXCL1 protein secretion in IL-36 gamma-stimulated HaCaT cells. In kind it is cell-based.
The next experiment deals with T3, Interleukin-18 (Homo sapiens, UniProt Q14116).
T3 sequence (Q14116 whole entry): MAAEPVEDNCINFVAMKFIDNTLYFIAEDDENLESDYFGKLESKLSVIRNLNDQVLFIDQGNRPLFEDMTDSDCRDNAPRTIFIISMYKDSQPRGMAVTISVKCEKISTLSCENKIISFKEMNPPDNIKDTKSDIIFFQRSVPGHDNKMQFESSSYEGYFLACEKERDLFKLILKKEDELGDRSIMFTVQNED
Kind of experiment: Inhibition of human IL-18 expressed in Escherichia coli BL21(DE3) cells incubated for 18 hrs.

For a further experiment, the species on record is Homo sapiens. Kind of experiment: (§1) Binding affinity to gp130 (unknown origin) assessed as fold increase.
Experiment [4] in a line: Inhibition of IL-6/gp130 (unknown origin) by SPR analysis. The arrangement: species or system Homo sapiens.
Experiment [5] can be described thus: Inhibition of OSMR/gp130 (unknown origin) by SPR analysis. The arrangement: species or system Homo sapiens.
Experiment [6] in a line: as §1. The arrangement: species or system Homo sapiens.
For the next experiment, the target named is T4, Interleukin-33 (Homo sapiens, UniProt O95760).
T4 sequence (O95760 whole entry): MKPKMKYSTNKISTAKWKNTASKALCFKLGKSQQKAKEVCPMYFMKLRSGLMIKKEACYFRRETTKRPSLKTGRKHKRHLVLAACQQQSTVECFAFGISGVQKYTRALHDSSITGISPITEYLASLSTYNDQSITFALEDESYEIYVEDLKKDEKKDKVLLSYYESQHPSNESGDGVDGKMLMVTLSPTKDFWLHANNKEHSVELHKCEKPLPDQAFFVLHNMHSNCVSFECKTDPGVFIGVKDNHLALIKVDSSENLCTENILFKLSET
Kind of experiment: Inhibition of human IL-33 incubated for 1 hrs by AlphaLISA assay. For orientation: In Alpha technology, singlet oxygen from a donor bead excites a nearby acceptor bead.

The nature of experiment [7]: Binding affinity to gp130 (unknown origin) assessed as dissociation constant by SPR analysis. The arrangement: species or system Homo sapiens.
For experiment [8], the target named is T5, Interleukin-4 (Homo sapiens, UniProt P05112).
T5 sequence (P05112 whole entry): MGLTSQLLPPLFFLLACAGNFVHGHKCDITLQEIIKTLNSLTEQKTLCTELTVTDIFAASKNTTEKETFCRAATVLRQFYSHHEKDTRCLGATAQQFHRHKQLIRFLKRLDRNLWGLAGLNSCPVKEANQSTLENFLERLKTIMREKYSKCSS
Description: Inhibition of IL-4 (unknown origin) in human THP-1 cells assessed as inhibition of STAT6 phosphorylation by HEK-Blue assay. The class given is cell-based.

The target of experiment [9] is T5, Interleukin-4. Kind of experiment: Inhibition of IL-4 (unknown origin) assessed as dissociation constant by SPR analysis. Background: SPR reads the build-up and loss of mass on a sensor chip optically.

In turn, `COC(=O)[C@H](Cc1ccc(C#Cc2ccccc2)cc1)NC(=O)C[C@H]1CCCN(C(=N)N)C1` returned an IC50 in experiment [1] of 3 µM.
`NCCc1c(-c2ccccc2)n(-c2ccccc2)c2ccccc12`: the Kd in experiment [2] came to 316 µM.
For `COC(c1ccccc1)(c1ccccc1)[C@H](Oc1nc(C)cc(-c2ccc(C)c(N)c2)n1)C(=O)O`, half-maximal inhibition in experiment [3] (IC50) required 0.031 µM.
In turn, `N#Cc1ccc(NC(=O)Nc2ccc(Oc3ccc(NC(=O)Nc4ccc(C#N)cc4)cc3)cc2)cc1` registered an EC50 on Interleukin-18 of 0.25 µM.
Turning to `CCCCc1ccc(OC)c(CN2c3ccccc3[C@]3(O)C[C@@H](COC(=O)c4ccccc4)O[C@H]23)c1OC`, the fold change (FC) in the experiment filed under Homo sapiens turned out to be 5.
`Brc1ccc(Nc2nc(-c3ccccc3)cs2)cc1`: the Kd in experiment [4] worked out at 2.9 µM; in [5], 5.7 µM.
For `CCCCc1ccc(O)c(CN2c3ccccc3[C@]3(O)C[C@@H](COC(=O)c4ccccc4)O[C@H]23)c1O`, the Kd in experiment [6] was found to be 36.9 µM. For the same molecule, the fold change (FC) in the experiment listed under Homo sapiens is 5.
On to `COc1ccc([C@H]2CCCN2Cc2ccc(-c3ccccc3[N+](=O)[O-])o2)cc1`, for which, at Interleukin-33, the IC50 was 43 µM.
The same measure, in the same setting: with `COc1ccc([C@@H]2CCCN2Cc2ccc(-c3ccccc3[N+](=O)[O-])o2)cc1` the figure was 42 µM.
Consider `CCCCC1=C(C)C(=O)[C@@](C)(CN2c3ccccc3[C@]3(O)CCO[C@H]23)C1=O`, for which the Kd in [7] came out at 288 µM.
As to `CCCCc1ccc(O)c(Cn2cc(CC(O)COC(=O)c3ccccc3)c3ccccc32)c1O` (stereo unspecified), the Kd in [6] came out at 29 µM. In the experiment filed under Homo sapiens, the fold change (FC) turned out to be 5.
Regarding `N#Cc1c(-c2ccc(O)c(O)c2)cc(-c2ccc(F)cc2)nc1N`, the concentration giving a half-maximal response (EC50) at Interleukin-4 [8] came out at 3.1 µM. Besides, on Interleukin-4 [9], the Kd was 1.8 µM.
